Measurements reported in publication PMC9973354 (mBio, 2022).
Starred links: 1 amine or outer side, 2 acyl side, 3 side chain; linkers in the order of their positions; H or OH if unused. Positions of bridges follow the written chain, without caps; N, C: chain ends. Non-standard residues stand in square brackets, D forms with d. Residues, ends and D or L forms follow the SMILES beside them. ξ: configuration not given here. X1 = O=C([C@@H]1CCN=C2C(N[*:1])=Cc3cc(O)c(O)cc3N21)[*:2]; ξOrn(N(OH)CHO) = NC(CCCN(O)C=O)C(=O)O; Suc = O=C(CCC(=O)[*:2])[*:1]; ξK = NCCCCC(N)C(=O)O; ξS = NC(CO)C(=O)O

How the values were obtained:
[1] = tested on: PA14 ΔfpvA ΔfpvB ΔfiuA ΔfoxA pHERD20T; test: Growth of quadruple mutant with empty vector; type: cell-based, Pseudomonas aeruginosa; settings: 10:90 + 2% arabinose
Protocol: Site-directed mutagenesis was used to confirm the docking predictions and to define the molecular determinants for ligand uptake through FpvB (Fig. 4C). We generated 17 single amino acid substitutions in FpvB and expressed each of them in trans in the quadruple ΔfpvA ΔfpvB ΔfiuA ΔfoxA mutant. Their ability to complement growth of the mutant in the presence of ferrichrome and ferrioxamine B and to restore TS susceptibility was assessed. […] The mutant transporters were tagged with a C-terminal FLAG tag to evaluate expression levels. FLAG-tagged FpvB mutants had WT levels of expression except for Y216T and W347V, which were expressed at 140% and 25% of WT, respectively.
The ΔfpvA ΔfpvB ΔfiuA ΔfoxA mutant was complemented with WT fpvA, fpvB, fiuA, and foxA in trans as controls (Fig. 4E).
MIC assays were conducted as previously described ([13], [14]). Overnight cultures were grown in LB from a glycerol stock at 37°C with shaking (200 rpm). Subcultures in 10:90 (1:100 dilution) were cultured for 4 h. Cells were adjusted to an optical density at 600 nm (OD600) of 0.1/500 in 10:90. All compounds were serially diluted 2-fold in dimethyl sulfoxide (DMSO) or H2O at 75× the final concentration. […] The next day, the OD600 was determined with a plate reader (Thermo Scientific) and normalized to percent of growth of the vehicle control after subtracting the OD600 from blank media.

[2] = target: T1, FpvB R648C (Pseudomonas aeruginosa, UniProt A0A0H2ZFZ5, R648C); test: Whole-cell fluorescence quenching, FpvB R648C in ΔfpvA ΔfpvB; type: binding
T1 sequence (A0A0H2ZFZ5 23-802 R648C): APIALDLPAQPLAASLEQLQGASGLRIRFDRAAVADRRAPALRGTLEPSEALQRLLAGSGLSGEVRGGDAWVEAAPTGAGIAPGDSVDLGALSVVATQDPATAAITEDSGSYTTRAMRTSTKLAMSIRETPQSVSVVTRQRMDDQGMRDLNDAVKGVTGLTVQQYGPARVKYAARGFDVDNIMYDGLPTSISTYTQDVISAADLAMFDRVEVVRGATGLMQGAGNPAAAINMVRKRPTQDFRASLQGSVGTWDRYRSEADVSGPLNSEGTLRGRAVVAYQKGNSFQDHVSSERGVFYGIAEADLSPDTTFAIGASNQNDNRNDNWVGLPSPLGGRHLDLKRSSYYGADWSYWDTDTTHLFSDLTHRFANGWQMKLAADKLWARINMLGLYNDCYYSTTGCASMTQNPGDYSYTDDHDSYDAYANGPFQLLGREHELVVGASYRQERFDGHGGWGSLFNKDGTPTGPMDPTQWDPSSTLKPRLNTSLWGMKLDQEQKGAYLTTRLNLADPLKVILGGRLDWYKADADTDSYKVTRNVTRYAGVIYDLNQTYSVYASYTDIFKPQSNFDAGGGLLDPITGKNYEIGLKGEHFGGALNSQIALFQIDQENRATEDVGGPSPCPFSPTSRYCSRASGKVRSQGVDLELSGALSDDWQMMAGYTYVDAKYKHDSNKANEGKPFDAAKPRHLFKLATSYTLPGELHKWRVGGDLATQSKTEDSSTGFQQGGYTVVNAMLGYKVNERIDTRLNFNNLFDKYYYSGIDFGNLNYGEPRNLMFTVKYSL
Source text: To determine the affinity of the siderophores for FpvA and FpvB, we adapted the method from Chakravorty et al. to generate a whole-cell sensor where fluorescence quenching serves as an indicator of ligand interaction ([31]). Siderophore binding triggers conformational changes at the extracellular loops of the TBDT (Fig. 3A). Cys substitutions were introduced at the loops and labeled with a fluorescent maleimide dye. When a ligand binds the transporter, the loops fold inward toward the lumen of the barrel, and changes in the chemical environment surrounding the fluorophore lead to quenching ([31], [32]). Fluorescence recovery occurs once the siderophore is taken up and the loop returns to its original conformation.
Cells were cultured overnight in LB with carbenicillin (200 μg/mL) at 37°C with shaking at 200 rpm. Cells were subcultured (1:200 dilution) in 10:90 plus 2% arabinose for 4 h without carbenicillin at 37°C with shaking at 200 rpm. […] Excess dye was quenched with 1 mM dithiothreitol (DTT) (Sigma) to stop the reaction. Cells were washed 3× with PBS. For fluorescence recovery assays, cells were incubated with 1× PBS plus 0.4% glucose at 37°C with shaking at 200 rpm. Glucose was prepared as a 20% stock (wt/vol) in 1× PBS and filter sterilized. Cells were spun down and washed 3× with 1× PBS and resuspended in 1× PBS for quenching assays and 1× PBS plus 0.4% glucose for fluorescence recovery assays.
For fluorescence quenching and recovery assays, cells were diluted to an OD600 of 0.1 for both types of assays, and 148 μL was added into wells of a 96-well black plate (Corning). Fluorescence was recorded for 5 min at 1-min intervals at 37°C (BioTek Neo; excitation, 494 nm; emission, 520 nm). After 5 min, 2 μL of each serial dilution for ferrioxamine-Fe^3+, ferrichrome-Fe^3+, and pyoverdine-Fe^3+ or DMSO for vehicle controls was added to each well. Fluorescence was recorded immediately for quenching assays and for 1 h at 1-min intervals for fluorescence recovery assays. Background fluorescence was subtracted from all fluorescence readings and 1-F/F0 was used to calculate the degree of quenching, where F0 is the initial fluorescence. Kd was calculated using GraphPad Prism using a one-site specific binding model or a two-site model. For fluorescence recovery assays, background was subtracted from all fluorescence readings and F/F0 expressed as a percent of control was plotted versus time.

SMILES | growth in the presence of siderophore [1] | Kd for FpvB relative to ferrichrome ([2]; greater than ferrichrome) [fold] | Kd for FpvB relative to ferrioxamine B ([2]; greater than ferrioxamine B) [fold]
CC(=O)N(O)CCCCCNC(=O)CCC(=O)N(O)CCCCCNC(=O)CCC(=O)N(O)CCCCCN [ferrioxamine B] | inhibited |  | 
NCCCCC(NC(=O)C(CO)NC(=O)[C@@H]1CCN=C2C(NC(=O)CCC(=O)O)=Cc3cc(O)c(O)cc3N21)C(=O)NCC(=O)NC(CCCN(O)C=O)C(=O)NC1CCCCNC(=O)C(CO)NC(=O)C(CCCN(O)C=O)NC1=O (stereo partly drawn) [pyoverdine] (Suc-[X1][ξS][ξK]G[ξOrn(N(OH)CHO)][ξK][ξOrn(N(OH)CHO)][ξS]; lactam 6-C) |  | 200 | 20
